Reference: patent publication US20100190688A1, “Tetrapeptide analogs” (priority 2004, published 2010)
Where a name gives a salt, the structure may show the parent alone.

How the values were obtained:
[1] = target: T1, BIR3-mediated Caspase-9 inhibition (UniProt Q9R0I6); test: Caspase-9 rescue assay (relief of BIR3-mediated Caspase-9 inhibition); assay type: biochemical, human Caspase-9; Rat or Chicken BIR3; settings: average EC50, substrate Ac-LEHD-amc, pH 6.5
T1 construct: Nothing is printed for this assay
Procedure: Additionally the compounds and compositions can be evaluated for their ability to achieve relief of BIR3-mediated Caspase-9 inhibition by measuring Caspase-9 reactivation. The fluorogenic substrate Ac-LEHD-7-amido-4-methylcoumarin is used in these methods. EC50 values of tested BIR3 inhibitors or Caspase-9 rescuers is calculated from the percentage of Caspase-9 reactivation in the mixtures containing serially diluted concentrations of tested compound. Typically, 10-point curves are generated for such EC50 determination.
Relief of BIR3-mediated Caspase-9 inhibition by BIR3 inhibitors was assayed by measuring Caspase-9 reactivation using the fluorogenic substrate Ac-LEHD-7-amido-4-methylcoumarin. A truncated form of human Caspase-9 that lacks the N-terminal Caspase recruitment domain (EPro-Caspase-9 or p35/p12) was used in the assay. This form of the enzyme has the full catalytic activity and the same substrate specificity as the full-length protein in the Apaf-1/Cytochrome C/dATP/Caspase-9 reconstituted system. Rat or Chicken BIR3 was used in this assay. […] This mixture was incubated for 40 min to allow equilibration at 25° C., and the assay progression was subsequently followed by monitoring the formation of fluorescent 7-amido-4-methylcoumarin over time at 460 nm using an excitation wavelength of 360 nm. […] EC50 values of tested BIR3 inhibitors or Caspase-9 rescuers were calculated from the percentage of Caspase-9 reactivation in the mixtures containing serially diluted concentrations of tested compound.

BIR3 domain of rat XIAP = BIR3 domain of rat XIAP (Rattus norvegicus, UniProt Q9R0I6); test: Fluorescence polarization assay, binding to BIR3 from rat XIAP
Sequence of BIR3 domain of rat XIAP (Q9R0I6 241-355): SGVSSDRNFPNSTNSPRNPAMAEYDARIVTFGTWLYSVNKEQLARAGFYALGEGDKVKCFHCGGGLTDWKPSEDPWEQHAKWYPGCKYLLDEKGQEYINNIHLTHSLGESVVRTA
Procedure: In fluorescence polarization assays a fluorescent probe is used. The binding affinity of compounds to BIR3 is measured by competitive displacement of a fluorescent probe using fluorescence polarization anisotropy. […] In other embodiments, the probe used is 6-(6-Hydroxy-3-oxo-3H-xanthen-9-yl)-N-(5-(2-methylamino-propionylamino)-6-oxo-6-[4-(1,2,3,4-tetrahydro-naphthalen-1-ylcarbamoyl)-thiazolidin-3-yl]-hexyl)-isophthalamic acid.
The binding affinity of compounds provided herein for rat BIR3 was measured by competitive displacement of a fluorescent probe using fluorescence polarization anisotropy. […] Control conditions were set up on each plate and include free probe 1 alone (5 nM), fully bound probe (5 μM BIR3+5 nM probe 1) and binding buffer blank. The-EC50 of binding was computed from a 4-parameter fit of the measured anisotropies using the SoftMax Pro 4.6 software package (Molecular Dynamics, Sunnyvale, Calif.).
Alternatively, probe 1 was substituted with probe 2: 6-(6-Hydroxy-3-oxo-3H-xanthen-9-yl)-N-{5-(2-methylamino-propionylamino)-6-oxo-6-[4-(1,2,3,4-tetrahydro-naphthalen-1-ylcarbamoyl)-thiazolidin-3-yl]-hexyl}-isophthalamic acid, for rat BIR3 and the concentrations of assay components changed. […] Controls were adjusted accordingly.

SMILES | EC50 [1] [µM] | EC50 (BIR3 domain of rat XIAP) [µM]
CN[C@@H](C)C(=O)N[C@H](C(=O)N[C@@H](CCCCNS(=O)(=O)c1ccc(C)cc1)C(=O)NC1CCCc2ccccc21)C(C)C (stereo in doubt) [2-[3-Methyl-2-(2-methylamino-propionylamino)-butyrylamino]-6-(toluene-4-sulfonylamino)-hexanoic acid (1,2,3,4-tetrahydro-naphthalen-1-yl)-amide] | < 1 | < 1
CC(C)CNC(C)C(=O)NC(C(=O)N1CCCC1C(=O)NC1CCCc2ccccc21)C(C)(C)C (stereo not shown) [1-[2-(2-Isobutylamino-propionylamino)-3,3-dimethyl-butyryl]-pyrrolidine-2-carboxylic acid (1,2,3,4-tetrahydro-naphthalen-1-yl)-amide] | 1 to 10 | < 1
CNC(C)C(=O)NC(C(=O)N1CCCC1C(=O)NCCC(c1ccccc1)c1ccccc1)C(C)(C)C (stereo not shown) [1-[3,3-Dimethyl-2-(2-methylamino-propionylamino)-butyryl]-pyrrolidine-2-carboxylic acid (3,3-diphenyl-propyl)-amide] | > 10 | 1 to 10
CCCNC(C)C(=O)NC(C(=O)N1CCCC1C(=O)NC1CCCc2ccccc21)C(C)(C)C (stereo not shown) [1-[3,3-Dimethyl-2-(2-propylamino-propionylamino)-butyryl]-pyrrolidine-2-carboxylic acid (1,2,3,4-tetrahydro-naphthalen-1-yl)-amide] | 1 to 10 | < 1
CNC(C)C(=O)NC(C(=O)N1C(C(=O)NC2CCCc3ccccc32)CC2CCCCC21)C(C)C (stereo not shown) [1-[3-Methyl-2-(2-methylamino-propionylamino)-butyryl]-octahydro-indole-2-carboxylic acid (1,2,3,4-tetrahydro-naphthalen-1-yl)-amide] | < 1 | < 1
CC(NCC1CC1)C(=O)NC(C(=O)N1CCCC1C(=O)NC1CCCc2ccccc21)C(C)(C)C (stereo not shown) [1-{2-[2-(Cyclopropylmethyl-amino)-propionylamino]-3,3-dimethyl-butyryl}-pyrrolidine-2-carboxylic acid (1,2,3,4-tetrahydro-naphthalen-1-yl)-amide] | 1 to 10 | < 1
CNC(C)C(=O)NC(C(=O)N1Cc2ccccc2CC1C(=O)NC1CCCc2ccccc21)C(C)C (stereo not shown) [2-[3-Methyl-2-(2-methylamino-propionylamino)-butyryl]-1,2,3,4-tetrahydro-isoquinoline-3-carboxylic acid (1,2,3,4-tetrahydro-naphthalen-1-yl)-amide] | < 1 | < 1
CNC(C)C(=O)NC(C(=O)N1Cc2ccccc2CC1C(=O)NC(Cc1ccccc1)Cc1ccccc1)C(C)C (stereo not shown) [2-[3-Methyl-2-(2-methylamino-propionylamino)-butyryl]-1,2,3,4-tetrahydro-isoquinoline-3-carboxylic acid (1-benzyl-2-phenyl-ethyl)-amide] | 1 to 10 | < 1
CNC(C)C(=O)NC(C(=O)N1Cc2ccccc2CC1C(=O)NC(c1ccccc1)c1ccccc1)C(C)C (stereo not shown) [2-[3-Methyl-2-(2-methylamino-propionylamino)-butyryl]-1,2,3,4-tetrahydro-isoquinoline-3-carboxylic acid benzhydryl-amide] | 1 to 10 | < 1
CNC(C)C(=O)NC(C(=O)NC(CCCCNS(=O)(=O)c1ccc([N+](=O)[O-])cc1)C(=O)NC1CCCc2ccccc21)C(C)C (stereo not shown) [2-[3-Methyl-2-(2-methylamino-propionylamino)-butyrylamino]-6-(4-nitro-benzenesulfonylamino)-hexanoic acid (1,2,3,4-tetrahydro-naphthalen-1-yl)-amide] | < 1 | < 1
CNC(C)C(=O)NC(C(=O)NC(CCCCNS(=O)(=O)C(F)(F)F)C(=O)NC1CCCc2ccccc21)C(C)C (stereo not shown) [2-[3-Methyl-2-(2-methylamino-propionylamino)-butyrylamino]-6-trifluoromethanesulfonylamino-hexanoic acid (1,2,3,4-tetrahydro-naphthalen-1-yl)-amide] | > 10 | < 1
CCCCC(NC(=O)C(NC(=O)C(C)NC)C(C)C)C(=O)NC1CCCc2ccccc21 (stereo not shown) [2-[3-Methyl-2-(2-methylamino-propionylamino)-butyrylamino]-hexanoic acid (1,2,3,4-tetrahydro-naphthalen-1-yl)-amide] | 1 to 10 | < 1
CNC(C)C(=O)NC(C(=O)NC(CCCCNS(=O)(=O)Cc1ccccc1)C(=O)NC1CCCc2ccccc21)C(C)C (stereo not shown) [2-[3-Methyl-2-(2-methylamino-propionylamino]-butyrylamino]-6-phenylmethanesulfonylamino-hexanoic acid (1,2,3,4-tetrahydro-naphthalen-1-yl)-amide] | < 1 | < 1
CNC(C)C(=O)NC(C(=O)N(CCc1ccccc1)CC(=O)NC1CCCc2ccccc21)C(C)(C)C (stereo not shown) [3,3-Dimethyl-2-(2-methylamino-propionylamino)-N-phenethyl-N-[(1,2,3,4-tetrahydro-naphthalen-1-ylcarbamoyl)-methyl]-butyramide TFA salt] | > 10 | 1 to 10
CNC(C)C(=O)NC(C(=O)NC(Cc1ccccc1)C(=O)NC1CCCc2ccccc21)C(C)C (stereo not shown) [3-Methyl-2-(2-methylamino-propionylamino)-N-[2-phenyl-1-(1,2,3,4-tetrahydro-naphthalen-1-ylcarbamoyl)-ethyl]-butyramide] | > 10 | 1 to 10
CNC(C)C(=O)NC(C(=O)NCC(=O)NC1CCCc2ccccc21)C(C)C (stereo not shown) [3-Methyl-2-(2-methylamino-propionylamino)-N-[(1,2,3,4-tetrahydro-naphthalen-1-ylcarbamoyl)-methyl]-butyramide] | 1 to 10 | 1 to 10
CNC(C)C(=O)NC(C(=O)NC(C(=O)NC1CCCc2ccccc21)c1ccccc1)C(C)C (stereo not shown) [3-Methyl-2-(2-methylamino-propionylamino)-N-[phenyl-(1,2,3,4-tetrahydro-naphthalen-1-ylcarbamoyl)-methyl]-butyramide] | < 1 | < 1
CNC(C)C(=O)NC(C(=O)N1CS(=O)(=O)CC1C(=O)NC1CCCc2ccccc21)C(C)C (stereo not shown) [3-[3-Methyl-2-(2-methylamino-propionylamino)-butyryl]-1,1-dioxo-1l6-thiazolidine-4-carboxylic acid (1,2,3,4-tetrahydro-naphthalen-1-yl)-amide] | < 1 | < 1
CN[C@@H](C)C(=O)N[C@H](C(=O)N1COC[C@H]1C(=O)N[C@@H]1CCCc2ccccc21)C(C)C [3-[3-Methyl-2-(2-methylamino-propionylamino)-butyryl]-oxazolidine-4-carboxylic acid (1,2,3,4-tetrahydro-naphthalen-1-yl)-amide] | < 1 | < 1
CNC(C)C(=O)NC(C(=O)N1CCSC1C(=O)NC1CCCc2ccccc21)C(C)C (stereo not shown) [3-[3-Methyl-2-(2-methylamino-propionylamino)-butyryl]-thiazolidine-2-carboxylic acid (1,2,3,4-tetrahydro-naphthalen-1-yl)-amide] | < 1 | < 1
CNC(C)C(=O)NC(C(=O)N1CSCC1C(=O)NC1CCCc2ccccc21)C(C)C (stereo not shown) [3-[3-Methyl-2-(2-methylamino-propionylamino)-butyryl]-thiazolidine-4-carboxylic acid (1,2,3,4-tetrahydro-naphthalen-1-yl)-amide] | < 1 | < 1
CNC(C)C(=O)NC(C(=O)N1CSCC1C(=O)NC(Cc1ccccc1)Cc1ccccc1)C(C)C (stereo not shown) [3-[3-Methyl-2-(2-methylamino-propionylamino)-butyryl]-thiazolidine-4-carboxylic acid (1-benzyl-2-phenyl-ethyl)-amide] | < 1 | < 1
CNC(C)C(=O)NC(C(=O)N1CSCC1C(=O)NC(c1ccccc1)c1ccccc1)C(C)C (stereo not shown) [3-[3-Methyl-2-(2-methylamino-propionylamino)-butyryl]-thiazolidine-4-carboxylic acid benzhydryl-amide] | < 1 | < 1
CNC(C)C(=O)NC(C(=O)N1CSCC1C(=O)NC1CCc2ccccc21)C(C)C (stereo not shown) [3-[3-Methyl-2-(2-methylamino-propionylamino)-butyryl]-thiazolidine-4-carboxylic acid indan-1-ylamide] | < 1 | < 1
CNC(C)C(=O)NC(C(=O)NC(CC(=O)OCc1ccccc1)C(=O)NC1CCCc2ccccc21)C(C)C (stereo not shown) [3-[3-Methyl-2-(2-methylamino-propionylamino)-butyrylamino]-N-(1,2,3,4-tetrahydro-naphthalen-1-yl)-succinamic acid benzyl ester] | 1 to 10 | < 1
CNC(C)C(=O)NC(C(=O)N1CCSCC1C(=O)NC1CCCc2ccccc21)C(C)C (stereo not shown) [4-[3-Methyl-2-(2-methylamino-propionylamino)-butyryl]-thiomorpholine-3-carboxylic acid (1,2,3,4-tetrahydro-naphthalen-1-yl)-amide] | 1 to 10 | < 1
